Where two headings read alike, the source gives them in different places.
Assays:
[1] = Apparent pKa of mRNA-LNP by TNS binding assay; type: physicochemical; settings: apparent pKa of mRNA-LNP made with the ionizable lipid
Experimental: The apparent pKa of the mRNA-LNPs prepared according to Example 27 was determined by analysis using 6-(p-toluidino)-2-naphthalenesulfonic acid sodium salt (TNS; Sigma-Aldrich, USA).
However, as the pH decreases, the proportion of positively charged ionizable lipids increases, allowing electrostatic interactions with TNS. […] When the pH of the solution increases and the ionizable lipids become neutralized, TNS can no longer engage in electrostatic interactions. Consequently, TNS loses its lipophilic character, exits the hydrophobic domain, and its fluorescence is quenched. Based on this principle, the pKa of LNPs can be measured by plotting the change in TNS fluorescence intensity in response to variations in the surrounding pH as an S-shaped curve, and calculating the […] of the inflection point. […]
Specifically, a master buffer was prepared containing 10 mM sodium phosphate, 10 mM sodium borate, 10 mM sodium citrate, and 150 mM sodium chloride (NaCl). […] After gently mixing the contents of each well, the fluorescence intensity was measured using a multiplate reader (Cary Eclipse, Agilent Technologies, USA) at an excitation wavelength of λex 330 nm and an emission wavelength of λem 435 nm.

[2] = Size, polydispersity index and surface charge of mRNA-LNP (Malvern Zetasizer Nano ZS90); type: physicochemical; settings: for PDI / size (nm) Number: mRNA-LNP made with the ionizable lipid at its optimal formulation (Table 2); for size (nm) Number: diluted with PBS to 1 μg/mL mRNA; for Zeta (mV): surface charge of mRNA-LNP made with the ionizable lipid at its optimal formulation (Table 2)
In short: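 Dynamic/electrophoretic light scattering of LNPs diluted in PBS to a final mRNA concentration of 1 μg/mL. Readouts were particle size, PDI and surface charge.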

[3] = mRNA encapsulation efficiency (Quant-IT RiboGreen RNA assay); type: physicochemical; settings: mRNA encapsulation efficiency of mRNA-LNP made with the ionizable lipid; average of two measurements
In short: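 LNP samples read with RiboGreen reagent in TE buffer with or without 2% Triton X-100 (37 °C, 10 min) to release encapsulated mRNA. Fluorescence at λex 480/λem 520 nm; EE % calculated from the two readings, averaged over two independent measurements.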

female C57BL/6 mice = assay: Protein expression efficiency of fLuc mRNA-LNPs after intramuscular injection (IVIS whole-body luminescence); type: in vivo; settings: for Total flux 1 hour / Total flux 3 hours / Total flux 6 hours / Total flux 48 hours / Total flux 72 hours / Total flux: fLuc mRNA-LNP, intramuscular injection, luminescence at injection site, mice; for Total flux 1 hour: 1 hour after administration; for Total flux 3 hours: 3 hours after administration; for Total flux 6 hours: 6 hours after administration; for Total flux 48 hours: 48 hours after administration; for Total flux 72 hours: 72 hours after administration; for Total flux: after administration
In short: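 Female C57BL/6 mice (6-10 weeks, n≥4) got intramuscular fLuc mRNA-LNPs at 0.1-0.5 mg/kg mRNA. Injection-site luminescence was imaged under isoflurane at 1-72 h, 10 min after i.p. D-luciferin (200 μL, 15 mg/mL). Expression at 3 h was taken relative to MC3 or SM-102 LNPs.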

[4] = system: CCL2 mRNA level in HEK-293T cells
[5] = system: CCL3 mRNA level in HEK-293T cells
[6] = system: IL-1β mRNA level in HEK-293T cells
[7] = system: IL-6 mRNA level in HEK-293T cells
[8] = In vivo toxicity evaluation, serum biochemical analysis (AST, ALT, ALP, BUN, creatinine); settings: serum of mice after injection of fLuc mRNA-LNP, FIG. 9
Experimental: Toxicity induced by fLuc mRNA-LNPs prepared using various ionizable lipids according to the method of Example 27 was evaluated through serum biochemical analysis following […]. injection into mice.
Specifically, 50-100 μL of serum was collected each mouse at 24 and 48 hours after intravenous injection using the retro-orbital bleeding method. The serum biochemical analysis was performed using Hitachi 7150 Chemistry Analyzer, measuring indicators of liver function—aspartate aminotransferase (AST), alanine aminotransferase (ALT), alkaline phosphatase (ALP)- and indicators of kidney function—blood urea nitrogen (BUN) and creatinine.

[9] = Stability of mRNA-LNPs according to storage temperature and duration; type: physicochemical; settings: for Normalized EE % D-7 / PDI D-7 / Size (nm) D-7: day 7; for Normalized EE % D-30 / PDI D-30 / Size (nm) D-30: day 30
Experimental: Stability of fLuc mRNA-LNPs produced using various ionizable lipids according to the method of Example 27, was assessed by storing the LNPs at 4° C. and 25° C. At 1, 7, and 30 days post-manufacture, the size, PDI, and encapsulation efficiency (EE) of each mRNA-LNPs samples were measured using the methods described in Experimental Examples 2 and 3.

[10] = fLuc mRNA-LNP stored at 4° C., day 1
[11] = fLuc mRNA-LNP stored at 25° C., day 1

## CCCCCCCCCCCOC(=O)CCCCCN(CCO)CCCCCCCC(=O)OC(CCCCCCCC)CCCCCCCC [SM-102, reference compound]
[1]
  PKa: 6.48
[2]
  PDI: 0.140
  size (nm) Number: 101 nm
  Zeta (mV): −2.99 mV
[3]
  EE (%): 94%
Female C57BL/6 mice
  Total flux 1 hour: 1.48E+07
  Total flux 3 hours: 1.12E+08
  Total flux 6 hours: 1.82E+08
  Total flux 48 hours: 7.43E+06
  Total flux 72 hours: 2.86E+06
  Total flux: 2.27E+07
[4]
  CCL2 Average: 0.83
[5]
  CCL3 Average: 2.41
[6]
  IL-1β Average: 1.14
[7]
  IL-6 Average: 1.82

## CCCCCCCCCCCOC(=O)CCCCCN(CCCCCCCC(=O)OC(CCCCCCCC)CCCCCCCC)CC(O)CCCCNC(=O)c1cc[nH]c1 (stereo not shown) [Compound 17, Heptadecan-9-yl 8-((2-hydroxy-6-(1H-pyrrole-3-carboxamido)hexyl)(6-oxo-6-(undecyloxy)hexyl)amino)octanoate]
[2]
  PDI: 0.100
  size (nm) Number: 151 nm
  Zeta (mV): −6.80 mV
[3]
  EE (%): 94%
Female C57BL/6 mice; 3 hours post intramuscular injection, in words
  protein expression compared to the control group (SM-102): significantly higher protein expression
Female C57BL/6 mice
  Total flux 1 hour: 6.53E+07
  Total flux 3 hours: 2.23E+08
  Total flux 6 hours: 1.02E+08
  Total flux 48 hours: 4.80E+06
  Total flux 72 hours: 4.21E+06
  Total flux: 1.00E+07
Female C57BL/6 mice; relative to control LNP formulated with MC3, 3 hours after intramuscular injection
  Fold increase in total flux at 3 h, MC3: 18.09
Female C57BL/6 mice; relative to control LNP formulated with SM-102, 3 hours after intramuscular injection
  Fold increase in total flux at 3 h, SM-102: 1.99
[8]
  ALP level compared to control groups (PBS and SM-102): similar
  AST level compared to control groups (PBS and SM-102): lower
  BUN level compared to control groups (PBS and SM-102): similar
[9]; [10]
  Normalized EE % D-1: 94.0%
  PDI D-1: 0.100
  Size (nm) D-1: 151.2 nm
[9]; fLuc mRNA-LNP stored at 4° C.
  Normalized EE % D-7: 91.3%
  PDI D-7: 0.098
  Size (nm) D-7: 133.8 nm
  Normalized EE % D-30: 89.8%
  PDI D-30: 0.081
  Size (nm) D-30: 130.7 nm
[9]; [11]
  Normalized EE % D-1: 94.0%
  Size (nm) D-1: 151.2 nm
[9]; fLuc mRNA-LNP stored at 25° C.
  Normalized EE % D-7: 90.2%
  PDI D-7: 0.114
  Size (nm) D-7: 134.2 nm
  Normalized EE % D-30: 88.6%
  PDI D-30: 0.128
  Size (nm) D-30: 128.1 nm
[4]; human
  CCL2 Average: 0.65
[5]; human
  CCL3 Average: 1.10
[6]; human
  IL-1β Average: 0.70
[7]; human
  IL-6 Average: 0.94
